Source: patent US7465544B2, “Synthetic cofactor analogs of S-adenosylmethionine as ligatable probes of biological methylation and methods for their use” (Wisconsin Alumni Research Foundation, priority 2006, dated 2008)
Where a name gives a salt, the structure may show the parent alone.

Legend:
Assay type in all cases: biochemical
M.TaqI [1] = target: T1, M.TaqI (Thermus aquaticus, UniProt P14385); assay: Restriction/protection assay: M.TaqI-mediated alkylation of R.EcoRI-linearized pUC19; details: for extent of DNA alkylation (protection from R.TaqI digestion) with increasing M.TaqI: 14.3 nM linearized pUC19, 20 to 200 nM M.TaqI, 65° C. 4 h; for extent of DNA alkylation (protection from R.TaqI digestion) with increasing M.TaqI / protection of DNA from R.TaqI in the absence of M.TaqI: 100 μM cofactor analog; for protection of DNA from R.TaqI in the absence of M.TaqI: no M.TaqI; for protection from R.TaqI with increasing cofactor analog concentration: 10 to 100 μM cofactor analog, 200 nM M.TaqI; for efficiency of M.TaqI dependent DNA alkylation relative to 3: linearized pUC19, disappearance of smaller restriction fragments
M.TaqI [2] = target: T1, M.TaqI
M.EcoRI = M.EcoRI (Escherichia coli, UniProt P00472)
M.HpaII = target: T2, M.HpaII (Haemophilus parainfluenzae, UniProt P15446); assay: M.HpaII-catalyzed transfer of cofactor analogs to DNA
T2 construct: purchased New England Biolabs
T2 sequence (P15446 1-358): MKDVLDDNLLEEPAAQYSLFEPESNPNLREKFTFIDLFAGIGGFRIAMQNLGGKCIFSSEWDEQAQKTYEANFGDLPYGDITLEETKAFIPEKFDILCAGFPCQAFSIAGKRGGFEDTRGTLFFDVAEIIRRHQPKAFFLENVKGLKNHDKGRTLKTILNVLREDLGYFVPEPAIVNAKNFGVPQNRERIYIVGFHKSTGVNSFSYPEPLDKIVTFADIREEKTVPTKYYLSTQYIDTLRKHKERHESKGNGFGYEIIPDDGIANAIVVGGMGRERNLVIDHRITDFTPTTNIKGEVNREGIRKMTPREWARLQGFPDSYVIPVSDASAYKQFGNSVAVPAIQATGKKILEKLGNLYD

M.HhaI = M.HhaI (Haemophilus parahaemolyticus, UniProt P05102)
M.SssI = M.SssI (Spiroplasma monobiae, UniProt P15840)
Chain of M.SssI (P15840 whole entry): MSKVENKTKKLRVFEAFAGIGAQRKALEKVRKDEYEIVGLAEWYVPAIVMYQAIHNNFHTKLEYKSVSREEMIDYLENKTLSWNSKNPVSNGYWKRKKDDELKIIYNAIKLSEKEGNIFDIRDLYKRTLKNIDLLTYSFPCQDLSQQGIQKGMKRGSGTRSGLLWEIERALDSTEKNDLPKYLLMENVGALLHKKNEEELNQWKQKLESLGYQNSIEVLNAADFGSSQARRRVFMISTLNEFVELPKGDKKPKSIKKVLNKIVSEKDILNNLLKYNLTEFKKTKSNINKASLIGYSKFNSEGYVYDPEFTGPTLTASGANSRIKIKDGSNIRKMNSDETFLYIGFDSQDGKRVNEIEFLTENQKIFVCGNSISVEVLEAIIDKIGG

T1 sequence (P14385 whole entry, the tested form may be a part): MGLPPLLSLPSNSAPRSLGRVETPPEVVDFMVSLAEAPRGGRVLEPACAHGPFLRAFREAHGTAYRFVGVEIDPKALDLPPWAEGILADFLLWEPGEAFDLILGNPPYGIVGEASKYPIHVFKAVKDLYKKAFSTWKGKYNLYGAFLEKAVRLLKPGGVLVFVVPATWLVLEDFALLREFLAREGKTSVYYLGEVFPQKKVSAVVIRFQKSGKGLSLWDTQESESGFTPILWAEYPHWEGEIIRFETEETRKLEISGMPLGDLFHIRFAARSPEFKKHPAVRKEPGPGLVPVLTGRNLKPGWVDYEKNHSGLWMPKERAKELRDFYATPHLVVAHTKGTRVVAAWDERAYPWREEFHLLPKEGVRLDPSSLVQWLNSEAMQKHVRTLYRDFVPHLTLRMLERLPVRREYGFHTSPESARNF
Chain of M.HhaI (P05102 whole entry): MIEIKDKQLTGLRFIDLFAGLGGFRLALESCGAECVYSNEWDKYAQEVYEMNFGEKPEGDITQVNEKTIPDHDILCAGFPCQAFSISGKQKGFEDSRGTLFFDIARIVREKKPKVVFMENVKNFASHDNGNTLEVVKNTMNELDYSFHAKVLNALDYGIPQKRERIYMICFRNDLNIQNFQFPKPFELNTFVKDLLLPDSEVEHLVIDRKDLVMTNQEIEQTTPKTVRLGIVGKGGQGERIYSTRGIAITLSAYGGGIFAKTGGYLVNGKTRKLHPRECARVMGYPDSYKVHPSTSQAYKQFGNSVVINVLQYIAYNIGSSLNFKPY
Chain of M.EcoRI (P00472 whole entry): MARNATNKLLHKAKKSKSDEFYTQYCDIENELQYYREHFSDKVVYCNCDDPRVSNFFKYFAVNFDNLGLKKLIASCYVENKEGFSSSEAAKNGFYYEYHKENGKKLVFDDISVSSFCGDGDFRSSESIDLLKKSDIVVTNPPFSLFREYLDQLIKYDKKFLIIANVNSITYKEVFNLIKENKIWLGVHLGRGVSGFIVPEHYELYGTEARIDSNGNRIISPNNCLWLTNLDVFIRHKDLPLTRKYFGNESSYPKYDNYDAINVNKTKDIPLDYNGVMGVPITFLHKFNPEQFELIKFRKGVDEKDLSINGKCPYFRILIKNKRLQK

## 5′-aziridine adenylate [compound 3, reference compound]
M.TaqI [1]
  extent of DNA alkylation (protection from R.TaqI digestion) with increasing M.TaqI: increase in the amount of DNA alkylation
  protection of DNA from R.TaqI in the absence of M.TaqI: no protection of the DNA
  protection from R.TaqI with increasing cofactor analog concentration: increased protection from R.TaqI
M.TaqI [2]
  covalent attachment to synthetic oligonucleotide (DNA mobility shift): pronounced shift of the DNA mobility
M.EcoRI
  transfer of cofactor analog to radiolabeled synthetic oligo duplex: clearly capable of transferring
M.HpaII
  M.HpaII-catalyzed transfer of cofactor analog: compatible

## [N-]=[N+]=Nc1nc2c(N)ncnc2n1[C@@H]1O[C@H](CN2CC2)C(O)[C@@H]1O (stereo partly shown) [24a, 8-azido-5′-aziridino-5′-deoxyadenosine]
M.TaqI [1]
  extent of DNA alkylation (protection from R.TaqI digestion) with increasing M.TaqI: increase in the amount of DNA alkylation
  protection of DNA from R.TaqI in the absence of M.TaqI: no protection of the DNA
  protection from R.TaqI with increasing cofactor analog concentration: increased protection from R.TaqI
  efficiency of M.TaqI dependent DNA alkylation relative to 3: better cofactor analogs for M.TaqI than is the unsubstituted cofactor analog 3
M.TaqI [2]
  covalent attachment to synthetic oligonucleotide (DNA mobility shift): pronounced shift of the DNA mobility
  transfer to the 55-mer duplex 5: effectively catalyze the transfer
M.EcoRI
  transfer of cofactor analog to radiolabeled synthetic oligo duplex: closely parallels that observed with M.TaqI
M.HhaI
  M.HhaI-catalyzed transfer of cofactor analog: catalyzed the transfer
  transfer to the 55-mer duplex 5: effectively catalyze the transfer
M.SssI
  M.SssI transfer of cofactor analog to its recognition sequence: readily transfers
  efficiency of M.SssI mediated DNA alkylation, hemimethylated duplex 9 versus unmethylated duplex 8: significantly more efficient for hemimethylated duplex 9
M.HpaII
  M.HpaII-catalyzed transfer of cofactor analog: not able to catalyze the transfer

## C#CCN(CCI)C[C@H]1O[C@@H](n2cnc3c(N)ncnc32)[C@@H](O)C1O (stereo partly shown) [compound 56, 5′-[(iodoethyl)propargyl)amino]-2′,3′-5′-deoxyadenosine hydrochloride]
M.TaqI [1]; brief treatments with M.TaqI, unpublished data
  protection of linearized pUC19 DNA from R.TaqI digestion: used very effectively to protect linearized pUC19 DNA from R.TaqI digestion
M.TaqI [2]
  DNA alkylation activity relative to 3: closely parallels that of 3
  alkylation of duplex pre-methylated with SAM: failed to undergo reaction
M.EcoRI
  DNA alkylation activity relative to 3: closely parallels that of 3
  DNA alkylation at 200 nM cofactor analog: not active at all
  alkylation of duplex pre-methylated with SAM: failed to undergo reaction
M.HhaI
  DNA-damaging activity in the presence of M.HhaI: completely devoid of DNA-damaging activity

## [N-]=[N+]=NCCCCNc1nc2c(N)ncnc2n1[C@@H]1O[C@H](CN2CC2)[C@H](O)C1O (stereo partly shown) [24b, 8-(4″-Azido-butylamino)-5′-aziridino-5′-deoxy adenosine]
M.TaqI [1]
  extent of DNA alkylation (protection from R.TaqI digestion) with increasing M.TaqI: increase in the amount of DNA alkylation
  protection of DNA from R.TaqI in the absence of M.TaqI: no protection of the DNA
  protection from R.TaqI with increasing cofactor analog concentration: increased protection from R.TaqI
  efficiency of M.TaqI dependent DNA alkylation relative to 3: better cofactor analogs for M.TaqI than is the unsubstituted cofactor analog 3
M.TaqI [2]
  covalent attachment to synthetic oligonucleotide (DNA mobility shift): pronounced shift of the DNA mobility
M.EcoRI
  transfer of cofactor analog to radiolabeled synthetic oligo duplex: closely parallels that observed with M.TaqI
M.HhaI
  M.HhaI-catalyzed transfer of cofactor analog: catalyzed the transfer
M.HpaII
  M.HpaII-catalyzed transfer of cofactor analog: not able to catalyze the transfer

## Nc1ncnc2c1ncn2[C@@H]1O[C@H](CN(CCI)CC[C@H](N)C(=O)O)C(O)[C@@H]1O (stereo partly shown) [compound 67, 5′-(diaminobutyric acid)-N-iodoethyl-5′-deoxyadenosine ammonium hydrochloride]
M.EcoRI
  DNA alkylation at 200 nM cofactor analog: significant amount of slow mobility DNA
  lowest concentration at which cofactor analog is active: ≤ 40 nM
M.HhaI
  alkylation of duplex bearing 5-MeC for C substitution at the target base: failed to undergo alkylation
M.SssI
  alkylation of duplex bearing 5-MeC for C substitution at the target base: failed to undergo alkylation
